Experimental findings from ChEMBL document CHEMBL4840332, “Pd-Catalyzed Direct Diversification of Natural Anti-Alzheimer's Disease Drug: Synthesis and Biological Evaluation of N-Aryl Huperzine A Analogues” (J Nat Prod, 2021) are described below.

In assay [1] the test system is SH-SY5Y. Description: Neuroprotective activity against H2O2-induced oxidative stress in human SH-SY5Y cells assessed as cell viability at 50 uM pretreated for 1 hr followed by H2O2 addition and measured after 4 hrs by MTT assay relative to control. The settings on record: time 5 hrs, read-out: Activity. Format: functional. On the technique in general: Tetrazolium assays rely on reduction of a dye to a coloured formazan, in cell work by metabolically active cells.

Assay [2] has as its target Acetylcholinesterase (Electrophorus electricus) (UniProt O42275). As to the kind of experiment: Inhibition of electric eel AChE at 100 uM using acetylthiocholine chloride as a substrate incubated for 20 mins followed by substrate addition and measured after 20 mins by Ellman's method. The settings on record: time 40.0 min. (In Ellman's method for cholinesterases, released thiocholine reacts with DTNB.)

Assay [3] has the same target. As to the kind of experiment: Inhibition of electric eel AChE at 100 uM using acetylthiocholine chloride as a substrate incubated for 20 mins followed by substrate addition and measured after 20 mins by Ellman's method relative to control. The settings on record: time 40.0 min.
Assay [4] deals with Acetylcholinesterase (Electrophorus electricus, UniProt O42275). Description: Inhibition of electric eel AChE using acetylthiocholine chloride as a substrate incubated for 20 mins followed by substrate addition and measured after 20 mins by Ellman's method.
Chain of Acetylcholinesterase (O42275 whole entry): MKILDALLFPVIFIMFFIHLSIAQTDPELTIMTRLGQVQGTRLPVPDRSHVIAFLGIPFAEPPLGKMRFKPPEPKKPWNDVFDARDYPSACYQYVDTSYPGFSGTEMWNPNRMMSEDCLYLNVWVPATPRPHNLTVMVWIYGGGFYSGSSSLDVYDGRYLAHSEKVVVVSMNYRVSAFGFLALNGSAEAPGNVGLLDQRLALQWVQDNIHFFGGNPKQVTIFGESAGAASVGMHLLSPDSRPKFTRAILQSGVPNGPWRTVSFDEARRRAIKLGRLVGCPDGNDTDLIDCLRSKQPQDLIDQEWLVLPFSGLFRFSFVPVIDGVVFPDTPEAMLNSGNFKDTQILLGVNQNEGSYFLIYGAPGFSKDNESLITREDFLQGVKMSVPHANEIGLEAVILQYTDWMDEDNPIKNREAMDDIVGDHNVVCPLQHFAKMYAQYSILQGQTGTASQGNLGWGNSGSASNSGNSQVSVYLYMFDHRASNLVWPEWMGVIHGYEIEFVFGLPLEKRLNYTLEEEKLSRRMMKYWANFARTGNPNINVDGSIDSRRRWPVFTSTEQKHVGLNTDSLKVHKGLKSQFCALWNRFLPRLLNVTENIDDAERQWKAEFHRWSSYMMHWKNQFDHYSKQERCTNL
Assay [5] addresses Acetylcholinesterase (Electrophorus electricus) (UniProt O42275). Description: Potency index, ratio of HPA IC50 to test compound IC50 for inhibition of electric eel AChE using acetylthiocholine chloride as a substrate incubated for 20 mins followed by substrate addition and measured after 20 mins by Ellman's method. To be noted: time 40.0 min.

Activity calls are given as the source filed them. The calls are words filed in the database; no cut-off is given here.

Chain of Acetylcholinesterase (Electrophorus electricus) (O42275 24-633 limits assumed): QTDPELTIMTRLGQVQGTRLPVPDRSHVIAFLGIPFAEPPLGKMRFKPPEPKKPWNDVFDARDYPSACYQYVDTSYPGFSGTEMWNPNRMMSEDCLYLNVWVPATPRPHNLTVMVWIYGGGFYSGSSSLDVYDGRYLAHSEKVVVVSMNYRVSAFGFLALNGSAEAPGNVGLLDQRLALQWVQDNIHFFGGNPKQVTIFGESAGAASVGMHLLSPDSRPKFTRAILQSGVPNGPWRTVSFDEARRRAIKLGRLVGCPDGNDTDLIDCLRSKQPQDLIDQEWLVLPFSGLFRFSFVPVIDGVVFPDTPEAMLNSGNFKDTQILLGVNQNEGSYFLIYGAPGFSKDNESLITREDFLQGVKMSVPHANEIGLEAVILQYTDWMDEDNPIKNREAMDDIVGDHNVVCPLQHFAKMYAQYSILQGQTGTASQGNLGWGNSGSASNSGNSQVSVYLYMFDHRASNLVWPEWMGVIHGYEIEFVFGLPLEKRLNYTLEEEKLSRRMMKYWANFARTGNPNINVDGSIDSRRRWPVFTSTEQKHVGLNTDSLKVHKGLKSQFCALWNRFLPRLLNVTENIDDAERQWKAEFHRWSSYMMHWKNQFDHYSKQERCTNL

Regarding `C/C=C1\[C@H]2C=C(C)C[C@]1(Nc1ccc3c(c1)OCO3)c1ccc(=O)[nH]c1C2`, the viability at 50 µM in assay [1] was more than 100%.

For orientation: inhibition means the change of the read-out against control, counted positive when it falls. Regarding `C/C=C1\[C@H]2C=C(C)C[C@]1(Nc1cccc(OC)c1)c1ccc(=O)[nH]c1C2`, the inhibition result in assay [2] is “Active”.

By IC50 is commonly meant the midpoint of a concentration-inhibition curve. Lower therefore signals greater potency. Consider `C/C=C1\[C@H]2C=C(C)C[C@]1(Nc1ncc(C)cc1C)c1ccc(=O)[nH]c1C2`, for which, in assay [1], the viability at 50 µM was more than 100%. In assay [3], the inhibition is more than 92%. Besides, the IC50 in assay [4] is 43 µM.

Take `C/C=C1\[C@H]2C=C(C)C[C@]1(Nc1ccc(OCC)cc1)c1ccc(=O)[nH]c1C2`: in assay [1], the viability at 50 µM is more than 100%.

Turning to `C/C=C1\[C@H]2C=C(C)C[C@]1(Nc1c(C)cc(OC)cc1C)c1ccc(=O)[nH]c1C2`, the viability at 50 µM in assay [1] is more than 100%. The inhibition in assay [3] worked out at 96%. 3.9 µM corresponded to half-maximal inhibition in assay [4] (IC50).

Turning to `C/C=C1\[C@H]2C=C(C)C[C@]1(Nc1cc(C)ccn1)c1ccc(=O)[nH]c1C2`, the viability at 50 µM in assay [1] is more than 100%. Also, the inhibition entry in assay [2] was “Active”.

Consider `C/C=C1\[C@H]2C=C(C)C[C@]1(Nc1cc(C)cc(C)c1)c1ccc(=O)[nH]c1C2`, for which, in assay [1], the viability at 50 µM is more than 100%.

In the case of `C/C=C1\[C@H]2C=C(C)C[C@]1(Nc1cccc(C)c1)c1ccc(=O)[nH]c1C2`, the viability at 50 µM in assay [1] is more than 100%. Further, the inhibition in assay [3] is more than 92%. The molecule also registered a concentration for half-maximal inhibition (IC50) in assay [4] of 47 µM.

On to `C/C=C1\[C@H]2C=C(C)C[C@]1(Nc1ncccc1OC)c1ccc(=O)[nH]c1C2`, for which the inhibition result in assay [2] was “Active”.

Consider `C/C=C1\[C@H]2C=C(C)C[C@]1(Nc1ccc(C)cc1)c1ccc(=O)[nH]c1C2`, for which the viability at 50 µM in assay [1] was more than 100%.

In the case of `C/C=C1\[C@H]2C=C(C)C[C@]1(Nc1ncccc1C)c1ccc(=O)[nH]c1C2`, the inhibition in assay [3] was more than 92%. The same molecule gave an IC50 in assay [4] of 40 µM.

For `C/C=C1\[C@H]2C=C(C)C[C@]1(Nc1cccc(F)c1)c1ccc(=O)[nH]c1C2`, in assay [2], the inhibition result is “Active”.

For `C/C=C1\[C@H]2C=C(C)C[C@]1(Nc1cccc3ncccc13)c1ccc(=O)[nH]c1C2`, the viability at 50 µM in assay [1] is more than 100%.

On to `C/C=C1\[C@H]2C=C(C)C[C@]1(Nc1cccc(C)n1)c1ccc(=O)[nH]c1C2`, for which the viability at 50 µM in assay [1] was more than 100%.

In the case of `C/C=C1\[C@H]2C=C(C)C[C@]1(Nc1ccc(F)cc1)c1ccc(=O)[nH]c1C2`, the inhibition in assay [3] was more than 92%. Moreover, in assay [4], the IC50 turned out to be 4.5 µM.

Consider `C/C=C1\[C@H]2C=C(C)C[C@]1(Nc1ccc(OC)cn1)c1ccc(=O)[nH]c1C2`, for which the viability at 50 µM in assay [1] turned out to be 144%. Also, the Ratio IC50 in assay [5] was determined as 7.6. In addition, the inhibition in assay [3] turned out to be 106%. In assay [4], half-maximal inhibition (IC50) was put at 1.5 µM.

On to `C/C=C1\[C@H]2C=C(C)C[C@]1(Nc1ccc(Cl)cc1)c1ccc(=O)[nH]c1C2`, for which the inhibition result in assay [2] was “Active”.
